According to article PMC11811597, “Phenomics‐Based Discovery of Novel Orthosteric Choline Kinase Inhibitors” (Angewandte Chemie (International Ed. in English), 2025):

Key:
EHMT1 (GLP) = target: T1, EHMT1 (GLP) (Homo sapiens, UniProt Q9H9B1); test: Competitive affinity-based chemoproteomics (UNC0965 matrix), MCF7 lysate; type: binding; settings: MCF7 lysates, 20 μM competitor
T1 construct: endogenous in cells; host or cells: MCF7 whole cell lysate
Method: (§1) A-366 and UNC0638 were purchased from Tocris. ARIAD and V-11-07-11 were purchased from Wuxi Apptec. UNC0737 and UNC0965 were synthesised as previously described.[1] […]
(§2) #35050061). Cells were maintained at 37 °C in a humidified 5% CO2 atmosphere. […]
(§3) Chemical Proteomics Drug Pulldown
(§4) For lysate generation MCF7 cells were grown until approximately 80% confluency before being pelleted and washed with PBS. Cell pellets were subsequently lysed by addition of Buffer A (50 mM Tris pH 7.5, 0. 8% v/v NP-40, 5% v/v glycerol, 1.5 mM MgCl2, 100 mM NaCl, 25 mM NaF, 1 mM Na3VO4, 1 mM PMSF, 1 mM DTT, 10 μg mL−1 TLCK, 1 μg mL−1 Leupeptin, 1 μg mL−1 Aprotinin, 1 μg mL−1 soy bean trypsin) as previously described.[2]
(§5) For each pulldown condition, UNC0965 was coupled to 100 μL of UltraLink Immobilized Streptavidin Plus bead slurry (50% in isopropanol, GE Healthcare) to generate the affinity matrix as previously […]
(§6) described.[2] Lysates were precleared with bead slurry (100 μL) for 30 min at 4 °C and then treated with UNC0638 or UNC0737 (20 μM) or DMSO control for 30 min at 4 °C followed by incubation with affinity matrix for 2 h at 4 °C. Affinity matrices were washed with buffer A (5 mL) and proteins eluted with 100 μL of 2x Laemmli sample buffer, 100 mM DTT, in PBS and heating for 10 min at 90 °C.
(§7) Eluents (70 µL) were diluted in 0.1 M Tris (pH 7.8) to 200 µL, reduced with 5 mM DTT for 30 min at RT, and alkylated with 20 mM iodoacetamide for 30 min at RT in the dark. Proteins were precipitated by sequential addition of MeOH (600 µL), CHCl3 (150 µL) and H2O (450 µL), pelleted (17,000 × g, 5 min), washed with further MeOH (2 × 600 µL), and re-pelleted. Air dried pellets were resuspended in 50 μL 6 M urea (pH 7.8) by vortexing and then diluted with 250 μL H2O before adding 1 µg trypsin for overnight incubation at 37 °C. The digests were acidified with FA (1% v/v final concentration), desalted using SOLA HRP SPE Cartridges (Thermo Fisher), eluted with 69% v/v MeCN, 0.1% v/v FA in H2O (600 μL) and dried in vacuo. Dried peptides were stored at -20 °C before resuspension in 2% v/v MeCN, 0.1% v/v FA in H2O (20 μL) for LC-MS/MS analysis.
(§8) LC-MS/MS Data Acquisition
(§9) Digested samples were analysed by nano-UPLC–MS/MS using a Dionex Ultimate 3000 nano UPLC fitted with an EASY spray column (75 μm × 500 mm, 2 μm particle size, Thermo Scientific), coupled to an Orbitrap Q Exactive instrument. A 60 min gradient of 0.1% (v/v) formic acid in 5 % (v/v) DMSO to 0.1% (v/v) formic acid with 35% (v/v) acetonitrile in 5 % (v/v) DMSO at a flow rate of 250 nL min−1 was used. The instrument was operated in a data-dependant mode, with survey scans acquired at a resolution of 70,000 at 200 m/z and the 15 most abundant precursors selected for HCD fragmentation with an AGC target of […] ions.
(§10) Raw data was processed using MaxQuant[3] version 2.0.1.0 and the reference complete human proteome FASTA file (UniProt, downloaded 05.08.21). Label Free Quantification (LFQ) and Match Between Runs were selected; Cysteine carbamidomethylation was selected as a fixed modification, and methionine oxidation and asparagine deamidation as variable modifications. Default settings for identification and quantification were used. Specifically, a minimum peptide length of 7, a maximum of 2 missed cleavage sites, and a maximum of 5 labelled amino acids per peptide were allowed.
(§11) Through selection of the ‘trypsin/P’ general setting, peptide bond cleavage at arginine or lysine (followed by any amino acid) was considered during in silico digest of the reference proteome. The allowed precursor and fragment ion mass tolerances were 4.5 ppm and 20 ppm, respectively. Peptides and proteins were identified utilizing a 0.01 false discovery rate, with “unique and razor peptides” […]
(§12) mode selected for both identification and quantification of proteins (razor peptides are uniquely assigned to protein groups and not to individual proteins). At least 1 razor + unique peptides were required for valid quantification. […]

PRCP = target: T2, PRCP (Homo sapiens, UniProt P42785); test: as above; type: binding; settings: 20 μM competitor, n=2
T2 construct: endogenous in cells; host or cells: MCF7 whole cell lysate
T2 sequence (P42785 46-496): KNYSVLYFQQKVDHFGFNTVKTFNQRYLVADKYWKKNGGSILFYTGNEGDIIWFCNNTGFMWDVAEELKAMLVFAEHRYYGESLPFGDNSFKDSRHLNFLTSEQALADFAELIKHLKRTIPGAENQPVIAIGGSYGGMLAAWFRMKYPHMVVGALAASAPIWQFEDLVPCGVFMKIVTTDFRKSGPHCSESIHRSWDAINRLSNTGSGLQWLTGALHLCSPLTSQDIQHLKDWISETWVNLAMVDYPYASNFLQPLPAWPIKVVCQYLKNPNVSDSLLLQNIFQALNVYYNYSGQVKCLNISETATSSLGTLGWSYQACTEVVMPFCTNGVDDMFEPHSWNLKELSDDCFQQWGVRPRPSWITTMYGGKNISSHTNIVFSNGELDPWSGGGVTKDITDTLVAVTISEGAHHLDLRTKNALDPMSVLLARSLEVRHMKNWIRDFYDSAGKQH
Method: as §1, §2, §3, §4, §5, §6, §7, §8, §9, §10, §11, §12

TUBD1 = target: T3, TUBD1 (Homo sapiens, UniProt Q9UJT1); test: as above; type: binding; settings: 20 μM competitor, n=2
T3 construct: endogenous in cells; host or cells: MCF7 whole cell lysate
T3 sequence (Q9UJT1 whole entry): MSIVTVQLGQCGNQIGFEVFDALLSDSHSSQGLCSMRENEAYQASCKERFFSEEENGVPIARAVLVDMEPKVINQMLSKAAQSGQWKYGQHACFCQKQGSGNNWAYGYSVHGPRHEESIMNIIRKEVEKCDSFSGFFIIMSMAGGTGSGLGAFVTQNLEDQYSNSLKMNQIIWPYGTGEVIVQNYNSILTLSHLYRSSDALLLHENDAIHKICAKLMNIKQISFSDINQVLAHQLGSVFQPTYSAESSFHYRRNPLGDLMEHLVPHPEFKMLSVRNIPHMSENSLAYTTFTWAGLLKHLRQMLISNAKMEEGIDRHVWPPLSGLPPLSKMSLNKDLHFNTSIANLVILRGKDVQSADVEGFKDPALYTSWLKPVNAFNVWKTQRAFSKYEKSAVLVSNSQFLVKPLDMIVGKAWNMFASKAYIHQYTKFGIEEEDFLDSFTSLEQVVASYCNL
Method: as §1, §2, §3, §4, §5, §6, §7, §8, §9, §10, §11, §12

CHKA = CHKA (Homo sapiens, UniProt P35790); test: PISA thermal profiling, intact HepG2 cells; type: cell-based; parameters: endogenous in cells; host or cells: intact HepG2 cells; settings: 30 µM; for effect_CETSA_Intact (PISA amplitude), CHKA: 60 min, n=3
CHKA, sequence (P35790 whole entry): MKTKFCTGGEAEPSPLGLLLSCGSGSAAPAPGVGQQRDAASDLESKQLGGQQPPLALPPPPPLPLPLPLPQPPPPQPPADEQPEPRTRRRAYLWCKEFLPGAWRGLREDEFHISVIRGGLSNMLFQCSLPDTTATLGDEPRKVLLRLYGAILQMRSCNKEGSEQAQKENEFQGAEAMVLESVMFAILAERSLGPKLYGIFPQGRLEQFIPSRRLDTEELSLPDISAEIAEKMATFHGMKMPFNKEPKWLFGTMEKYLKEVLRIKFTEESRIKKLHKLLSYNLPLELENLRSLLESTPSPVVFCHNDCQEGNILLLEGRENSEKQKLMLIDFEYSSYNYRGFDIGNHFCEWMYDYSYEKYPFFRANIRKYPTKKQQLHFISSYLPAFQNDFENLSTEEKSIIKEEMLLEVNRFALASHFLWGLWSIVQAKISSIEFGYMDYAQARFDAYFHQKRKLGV
Method: To further corroborate our findings, we next performed the proteome integral solubility alteration (PISA) assay in HepG2 human hepatoma cells that express high levels of CHKA. Conceptually building on the cellular thermal shift assay (CETSA) with mass spectrometry based detection,[19, 20] PISA leverages compound‐mediated stabilisation of target proteins without the need of chemical modification in intact cells. […]
Experiments were performed as described earlier with few modifications. In short, 3 replicates of intact HepG2 cells were treated with 30 µM UNC0638, […] or corresponding volume of DMSO in medium-free experimental buffer for 60 min at 37 °C with end-over-end rotation. For lysates: Washed K562 cells were resuspended in medium-free experimental buffer and lysed by three freeze-thaw cycles. Lysate was centrifugated 20,000 × g for 20 min at 4 °C to remove cell debris. The cleared lysate was treated with 30 µM UNC0638, UNC0373 or corresponding volume of DMSO for 15 min at RT with end-over-end rotation. Each treated cell suspension or lysate was divided into 12 aliquots and subjected to a 12-step heat gradient from 44 °C to 64 °C. All the temperature points were pooled together to form […] individual samples. Soluble fraction was separated from precipitated proteins […]
by centrifugation at 30,000 × g for 20 min at 4 °C. The soluble fractions were collected to fresh tubes and further processed to be analysed with mass spectrometry. Sample handling, TMT labelling, LC-MS/MS analysis, protein identification and data analysis was performed as described earlier.[12] […]
Biosciences) was used for data analysis. The blood was obtained under an approved ethical review from the Regional Ethical Review Board in Stockholm, approval number 2015/2001-31/2. The donors gave their consent to participate after written and oral information.

T1 sequence (Q9H9B1 whole entry): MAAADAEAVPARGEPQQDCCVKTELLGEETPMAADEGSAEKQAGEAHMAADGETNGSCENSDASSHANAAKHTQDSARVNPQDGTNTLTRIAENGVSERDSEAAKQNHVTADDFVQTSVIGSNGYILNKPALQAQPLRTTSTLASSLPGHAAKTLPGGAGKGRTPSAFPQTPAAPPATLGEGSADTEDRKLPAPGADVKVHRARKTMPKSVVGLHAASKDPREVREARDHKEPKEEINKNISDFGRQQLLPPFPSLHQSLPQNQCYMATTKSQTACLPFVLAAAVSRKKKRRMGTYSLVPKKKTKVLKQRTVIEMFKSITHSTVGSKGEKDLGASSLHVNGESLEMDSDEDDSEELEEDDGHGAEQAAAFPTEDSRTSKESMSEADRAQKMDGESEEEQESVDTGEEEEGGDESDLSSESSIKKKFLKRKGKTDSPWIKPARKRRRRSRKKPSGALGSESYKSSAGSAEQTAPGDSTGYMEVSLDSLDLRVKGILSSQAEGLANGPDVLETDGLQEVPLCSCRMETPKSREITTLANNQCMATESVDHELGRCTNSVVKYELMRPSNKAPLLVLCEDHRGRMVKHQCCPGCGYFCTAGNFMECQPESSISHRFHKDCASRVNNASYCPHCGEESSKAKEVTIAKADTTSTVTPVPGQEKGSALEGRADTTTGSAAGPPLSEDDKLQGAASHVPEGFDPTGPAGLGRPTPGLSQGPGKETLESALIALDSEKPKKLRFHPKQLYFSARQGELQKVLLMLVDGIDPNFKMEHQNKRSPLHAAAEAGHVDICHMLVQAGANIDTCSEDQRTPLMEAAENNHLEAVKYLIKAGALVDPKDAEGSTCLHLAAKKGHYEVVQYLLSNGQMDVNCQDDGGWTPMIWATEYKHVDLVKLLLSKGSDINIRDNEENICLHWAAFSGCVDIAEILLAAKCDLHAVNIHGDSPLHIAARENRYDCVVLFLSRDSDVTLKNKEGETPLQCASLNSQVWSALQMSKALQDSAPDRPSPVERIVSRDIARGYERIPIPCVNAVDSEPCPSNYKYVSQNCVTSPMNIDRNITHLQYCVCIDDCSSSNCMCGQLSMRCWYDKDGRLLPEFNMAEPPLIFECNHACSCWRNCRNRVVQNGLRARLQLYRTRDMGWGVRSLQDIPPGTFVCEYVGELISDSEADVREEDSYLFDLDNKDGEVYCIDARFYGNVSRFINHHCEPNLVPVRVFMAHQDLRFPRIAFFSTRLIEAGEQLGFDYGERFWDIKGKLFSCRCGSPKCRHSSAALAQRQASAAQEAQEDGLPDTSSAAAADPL

Row | SMILES | competition for EHMT1 (GLP) binding to affinity matrix (EHMT1 (GLP)) | FC vs DMSO (log2 competition), PRCP (PRCP) | FC vs DMSO (log2 competition), TUBD1 (TUBD1) | stabilisation of CHKA (PISA) (CHKA) | effect_CETSA_Intact (PISA amplitude), CHKA (CHKA)
1 | COc1cc2c(NC3CCN(C(C)C)CC3)nc(C3CCCCC3)nc2cc1OCCCN1CCCC1 [UNC0638] | strong enrichment and competition | -2.542 | -2.877 | significant stabilisation of CHKA | 0.57
2 | COc1cc2c(N(C)C3CCN(C(C)C)CC3)nc(C3CCCCC3)nc2cc1OCCCN1CCCC1 [UNC0737] | did not ablate binding | 0.1604 | -0.7809 | significant stabilisation of CHKA | 0.619
